# Patent US20250049773A1, “INHIBITION OF STEROL RESPONSE ELEMENT BINDING PROTEINS AS ATARGET FOR SELECTIVE ELIMINATION OF SENESCENT CELLS” (Trustees of Tufts College, priority 2021, published 2025)
# Key:
# IMR-90 fibroblasts = assay: Selective killing of senescent versus quiescent IMR-90 fibroblasts by SRE-BP activation inhibitors; type: cell-based; conditions: 30 μM
# Description: FIGS. 1A and 1B. SRE-BP activation inhibitors selectively kill senescent cells. IMR-90 fibroblasts were induced to senesce with either 10 Gy of ionizing radiation (IR), 250 nM doxorubicin [SEN(DOXO)], or quiescent vehicle control (QUI) for 24 hours. Media was then replaced with drug-free growth media, and senescence was allowed to develop for 12 days. On day 12, growth media (10% serum) was replaced with quiescence media (0.2% serum+ITS supplement) for 48 hours to induce quiescence in non-senescent cells. On day 14, media was replaced with quiescence media containing increasing doses of fatostatin (A), xanthohumol (B), PF-429242 (C), or 30 micromolar betulin (D). DMSO served as a 0 micromolar vehicle control. \<0.001
# [1] = tested on: senescent cells in the liver; assay: Markers of senescence and SASP factors in liver of high fat diet mice by qRT-PCR; type: in vivo
# Description: FIGS. 2A, 2B, 2C, and 2D. […] Mice were fed a high fat diet (HFD) or high fat diet with 60 mg/kg xanthohumol (HFD+XN) for 12 weeks. RNA was extracted from mice and analyzed by quantitative PCR for (A) p21^WAF1, (B) p16^INK4a, (C) p15^INK4b, and (D) SASP factors.
# Prolonged high fat diet (HFD) induces the generation of senescent cells in the liver. To test the hypothesis that inhibitors of SRE-BP activation are senolytic, two groups of mice were fed a HFD for 12 weeks. A control group was fed a HFD alone (FIG. 2, HFD), and an experimental group (FIG. 2, HFD+XN) was fed a HFD and the SRE-BP activation inhibitor xanthohumol (XN). RNA was isolated from liver samples from each group and subjected to quantitative reverse transcriptase polymerase chain reaction (qRT-PCR). […] Accordingly, the data presented in FIG. 2D supports the hypothesis that SRE-BP activation inhibitors, e.g., xanthohumol, are senolytic.
# [2] = SASP factor, mice, HFD + 60 mg/kg xanthohumol for 12 weeks vs HFD alone, liver RNA, qRT-PCR
# [3] = mice, HFD + 60 mg/kg xanthohumol for 12 weeks vs HFD alone, liver RNA, qRT-PCR
SMILES,toxicity to senescent cells versus quiescent cells (IMR-90 fibroblasts),"expression of 2′, 5′ oligoadenylate synthetase 2 (Oas2) [1, 2]","expression of C-C motif chemokine 2 (Ccl2) [1, 2]","expression of arachidonate 5-lipoxygenase (Alox5) [1, 2]","expression of growth differentiation factor 15 (Gdf15) [1, 2]","expression of interleukin 6 (IL-6) [1, 2]","expression of matrix metalloproteinase 3 (MMP3) [1, 2]","expression of plasminogen activator, urokinase (Plau) [1, 2]","expression of prostaglandin-endoperoxide synthase 2 (Ptgs2) [1, 2]","expression of serpin family E member 1 (Serpine1), encoding plasminogen activator inhibitor 1 (PAI-1) [1, 2]","expression of marker of senescence p15^INK4b [1, 3]","expression of marker of senescence p16^INK4a [1, 3]","expression of marker of senescence p21^WAF1 [1, 3]","several genes characteristic of SASP in mouse livers ([1]; summary statement, after administration of xanthohumol, qRT-PCR)","markers of senescence in vivo ([1]; summary statement, mice, HFD + 60 mg/kg xanthohumol for 12 weeks vs HFD)"
C=C(C)[C@@H]1CC[C@]2(CO)CC[C@]3(C)[C@H](CC[C@@H]4[C@@]5(C)CC[C@H](O)C(C)(C)[C@@H]5CC[C@]43C)[C@@H]12 [betulin],significantly more toxic to senescent cells than quiescent cells,–,–,–,–,–,–,–,–,–,–,–,–,–,–
COc1cc(O)c(CC=C(C)C)c(O)c1C(=O)/C=C/c1ccc(O)cc1 [xanthohumol],–,reduced expression,reduced expression,reduced expression,reduced expression,reduced expression,reduced expression,reduced expression,reduced expression,reduced expression,reduced expression,reduced expression,reduced expression,reduced,lowers markers of senescence
